SMILES strings stand for the structures.

The first data set can be described thus: logP by HPLC on reversed-phase columns (C 18), EEC Directive 79/831 Annex V.A8. The conditions noted are these: method marker [a]; footnote not given. The class given is physicochemical.
Take `CC(C)N(C)c1nc(Nc2ccccc2)ncc1Cl.Cl` [Example 46]: the logP is 2.45[a].

On to `COCC(C)Nc1nc(Nc2cccc(S(=O)(=O)N(C)C)c2)ncc1Cl` (centres unmarked) [Example 31], for which the logP is 2.02[a];.

As for `CC(C)Nc1nc(Nc2ccccc2)ncc1Cl` [Example 36], the logP was 1.77[a].

On to `COCCNc1nc(Nc2cc(OC)cc(OC)c2)ncc1Cl.Cl` [Example 62], for which the logP is 1.67[a];.

For the molecule `COCCNc1nc(Nc2ccccc2)ncc1Cl.Cl` [Example 61], the logP was 1.41[a];.

`CC(=O)c1cccc(Nc2ncc(Cl)c(NCCO)n2)c1.Cl` [Example 56]: the logP is 1.06[a].

`CN(C)c1nc(Nc2ccccc2)ncc1Cl` [Example 33]: the logP is 1.78[a];.

Take `COCCNc1nc(Nc2ccc(N3CCN(C(=O)OC(C)(C)C)CC3)cc2)ncc1Cl` [Example 7]: the logP is 2.05[a];.

With `COCC(C)Nc1nc(Nc2ccc(S(=O)(=O)N(C)C)cc2)ncc1Cl` (centres unmarked) [Example 16], the logP was 2.25[a];.

In the case of `COCCNc1nc(Nc2cccc(C(C)=O)c2)ncc1Cl` [Example 5], the logP was 1.49[a];.

For the molecule `CCC(CO)Nc1nc(Nc2cccc(Cl)c2)ncc1Cl` (centres unmarked) [Example 17], the logP is 1.96[a].

Turning to `COCC(C)Nc1nc(Nc2cccc(S(=O)(=O)N3CCOCC3)c2)ncc1Cl` (centres unmarked) [Example 29], the logP is 2.1[a];.

Turning to `COCC(C)Nc1nc(Nc2cccc(Cl)c2)ncc1Cl` (centres unmarked) [Example 10], the logP was 2.58[a].

With `CCN(CC)c1nc(Nc2ccccc2)ncc1Cl` [Example 60], the logP was 2.29[a].

The same data set, now with this note: method marker [b] (compound 257: pH2.7).
As for `CC(C)Nc1nc(Nc2ccccc2)ncc1Br` [Example 247], the logP is 1.89[b].

Take `COc1cc(Nc2ncc(Cl)c(NC3CCCCC3)n2)cc(OC)c1OC` [Example 261]: the logP was 2.26[b].

`Clc1cnc(Nc2ccccc2)nc1NC1CCCC1` [Example 254]: the logP was 2.28[b].

With `CC(C)Nc1nc(Nc2cccc(CC#N)c2)ncc1Br` [Example 246], the logP is 1.84[b].

As for `C=CCNc1nc(Nc2ccccc2)ncc1Cl` [Example 286], the logP was 1.64[b].

Take `CN(C)S(=O)(=O)c1ccc(Nc2ncc(Cl)c(NC3CCCCC3)n2)cc1` [Example 263]: the logP was 3.18[b].

In the case of `Cc1cnc(Nc2ccccc2)nc1NC(C)(C)C` [Example 297], the logP was 1.48[b].

With `CCC(C)Nc1nc(Nc2ccccc2)ncc1Cl` (centres unmarked) [Example 296], the logP was 2.05[b].

Staying with this data set, now noted: method marker [b]; footnote not given; compound 68 value matches logP (pH 2.3).
For `COCC(C)Nc1nc(Nc2cccc(S(=O)(=O)N(C)C)c2)ncc1Cl` (centres unmarked) [Example 31], the logP was 2.18[b].

With `COCC(C)Nc1nc(Nc2ccc3c(c2)OCO3)ncc1Br` (centres unmarked) [Example 117], the logP was 1.64[b].

As to `COCCNc1nc(Nc2cc(OC)cc(OC)c2)ncc1Cl.Cl` [Example 62], the logP is 1.67[b].

As for `COCC(C)Nc1nc(Nc2cc(Cl)cc(Cl)c2)ncc1Cl` (centres unmarked) [Example 94], the logP was 4.08[b].

As for `COCC(C)Nc1nc(Nc2cc(Cl)cc(Cl)c2)ncc1Br` (centres unmarked) [Example 114], the logP is 4.32[b].

With `COCC(C)Nc1nc(Nc2ccc(SC(F)(F)F)cc2)ncc1Cl` (centres unmarked) [Example 88], the logP was 3.81[b].

With `COCC(C)Nc1nc(Nc2ccc(F)cc2F)ncc1Br` (centres unmarked) [Example 73], the logP was 2.16[b].

With `COCC(C)Nc1nc(Nc2ccc(OC)cc2)ncc1Br` (centres unmarked) [Example 110], the logP is 1.63[b].

In the case of `COCCNc1nc(Nc2ccccc2)ncc1Cl.Cl` [Example 61], the logP was 1.41[b].

Take `COCC(C)Nc1nc(Nc2ccc(SC)c(Cl)c2)ncc1Cl` (centres unmarked) [Example 89]: the logP was 2.77[b].

In the case of `COCC(C)Nc1nc(Nc2cccc(SC)c2)ncc1Br` (centres unmarked) [Example 77], the logP is 2.3[b].

Turning to `CN(C)c1nc(Nc2ccccc2)ncc1Cl` [Example 33], the logP was 1.73[b].

Take `COCCNc1nc(Nc2ccc(N3CCN(C(=O)OC(C)(C)C)CC3)cc2)ncc1Cl` [Example 7]: the logP was 2.05[b].

`COCC(C)Nc1nc(Nc2ccc(S(=O)(=O)N(C)C)cc2)ncc1Cl` (centres unmarked) [Example 16]: the logP is 2.26[b].

Take `COCCNc1nc(Nc2cccc(C(C)=O)c2)ncc1Cl` [Example 5]: the logP was 1.49[b].

Take `COCC(C)Nc1nc(Nc2ccc3sc(C)nc3c2)ncc1Cl` (centres unmarked) [Example 105]: the logP is 1.75[b].

On to `COCC(C)Nc1nc(Nc2ccc(C(=O)CC#N)cc2)ncc1Cl` (centres unmarked) [Example 102], for which the logP is 2.09[b].

In the case of `COCC(C)Nc1nc(Nc2cccc(S(=O)(=O)N3CCOCC3)c2)ncc1Cl` (centres unmarked) [Example 29], the logP was 2.04[b].

As to `COCC(C)Nc1nc(Nc2cccc(S(=O)(=O)N3CCOCC3)c2)ncc1Br` (centres unmarked) [Example 120], the logP was 2.16[b].

As to `COCC(C)Nc1nc(Nc2cccc(S(=O)(=O)N(C)C)c2)ncc1Br` (centres unmarked) [Example 72], the logP is 2.37[b].

As for `COCC(C)Nc1nc(Nc2ccc(Cl)c(S(C)(=O)=O)c2)ncc1Cl` (centres unmarked) [Example 100], the logP was 2.09[b].

For `COCC(C)Nc1nc(Nc2ccc(OC)cc2)ncc1Cl` (centres unmarked) [Example 86], the logP was 1.56[b].

Staying with this data set, now noted: method marker [c].
On to `CC(C)Nc1nc(Nc2ccccc2)ncc1Br` [Example 247], for which the logP was 3.7[c];.

For the molecule `CC(C)Nc1nc(Nc2cccc(CC#N)c2)ncc1Br` [Example 246], the logP is 3.13[c];.

Take `C=CCNc1nc(Nc2ccccc2)ncc1Cl` [Example 286]: the logP is 3.1[c];.

Staying with this data set, now noted: pH 2.3, 0.1% aqueous phosphoric acid and acetonitrile.
`COCC(C)Nc1nc(Nc2ccc(S(=O)(=O)N(C)C)cc2)ncc1Cl` (centres unmarked) [Example 16]: the “logP [a]” value was 2.25.

The same data set, now with this note: pH 2.3, logP [a].
`CC(C)N(C)c1nc(Cl)ncc1Cl` [Example V-11, 2,5-dichloro-N-methyl-N-(propan-2-yl)pyrimidine-4-amine]: the chromatographic logP amounted to 3.16.

`C=CCNc1nc(Cl)ncc1Cl` [Example V-13, 2,5-dichloro-N-(prop-2-en-1-yl)pyrimidine-4-amine] displayed a chromatographic logP of 2.12.

The molecule `COCC(C)Nc1nc(Cl)ncc1Br` (centres unmarked) [Example V-2, 5-bromo-2-chloro-N-(3-methoxypropan-2-yl)pyrimidine-4-amine] had a chromatographic logP of 2.26.

Still in this data set, the particulars now being: reversed-phase HPLC column (C 18), pH 2.3, pH 2.3, 0.1% aqueous phosphoric acid and acetonitrile; read-out: logP [a].
For `Clc1ncc(Cl)c(NC2CCCCC2)n1` [Example V-18, 2,5-dichloro-N-cyclohexylpyrimidine-4-amine], the chromatographic logP came out at 3.47.

As for `CCC(CO)Nc1nc(Cl)ncc1Cl` (centres unmarked) [Example V-4, 2,5-dichloro-N-(1-hydroxybutan-2-yl)pyrimidine-4-amine], the chromatographic logP was found to be 1.65.

On to `CCN(c1nc(Cl)ncc1Cl)C(C)C` [Example V-30, 2,5-dichloro-N-ethyl-N-isopropylpyrimidine-4-amine], for which the chromatographic logP was determined as 3.8.

Consider `CCCNc1nc(Cl)ncc1Cl` [Example V-21, 2,5-dichloro-N-propylpyrimidine-4-amine], for which the chromatographic logP stood at 2.75.

Regarding `CC(C)N(C)S(=O)(=O)Cc1cccc([N+](=O)[O-])c1` [IV-2, N-methyl-N-(propan-2-yl)-1-(3-nitrophenyl)methanesulphonamide], the chromatographic logP worked out at 2.35.

On to `CC(NS(=O)(=O)Cc1cccc([N+](=O)[O-])c1)c1ccccc1` (centres unmarked) [IV-3, N-(1-phenylethyl)-1-(3-nitrophenyl)methanesulphonamide], for which the chromatographic logP turned out to be 2.63.

For `CC(C)Nc1nc(Cl)ncc1Br` [Example V-10, 5-bromo-2-chloro-N-(propan-2-yl)pyrimidine-4-amine], the chromatographic logP amounted to 2.62.

As for `Nc1cccc(CS(=O)(=O)NCc2ccccc2)c1` [IV-8, 1-(3-aminophenyl)-N-benzylmethanesulphonamide], the chromatographic logP was 1.32.

Take `C=CCN(C)c1nc(Cl)ncc1Cl` [Example V-33, 2,5-dichloro-N-methyl-N-(prop-2-en-1-yl)pyrimidine-4-amine]: the chromatographic logP is 2.98.

For the molecule `CN1CCN(Cc2cccc([N+](=O)[O-])c2)C1=O` [1-methyl-3-(3-nitrobenzyl)imidazolidin-2-one], the chromatographic logP was determined as 2.03.

The data set is the same for the next values; noted with them: values marked [a]; pH 2.3.
With `CC(CO)Nc1nc(Nc2ccccc2)ncc1Cl` (centres unmarked) [Example 223], the logP is 1.04[a].

The data set is the same for the next values; noted with them: values marked [b]; footnote not given.
Consider `COCC(C)Nc1nc(Nc2ccc(O)c(C)c2)ncc1Cl` (centres unmarked) [Example 171], for which the logP is 1.39[b].

Consider `COCC(C)Nc1nc(Nc2cccc(NC(=O)c3ccco3)c2)ncc1Cl` (centres unmarked) [Example 168], for which the logP was 1.68[b].

Turning to `C=CCNC(=O)c1ccc(Nc2ncc(Br)c(NC(C)COC)n2)cc1` (racemic) [Example 128], the logP was 1.75[b].

With `COCC(C)Nc1nc(Nc2ccc(C(=O)N(C)C)cc2)ncc1Cl` (centres unmarked) [Example 148], the logP is 1.51[b].

For the molecule `COCC(C)Nc1nc(Nc2ccc(N(C)C(=O)C(C)(C)C)cc2)ncc1Cl` (centres unmarked) [Example 163], the logP was 1.87[b].

As for `COCC(C)Nc1nc(Nc2ccc(NC(=O)C(C)C)cc2)ncc1Cl` (centres unmarked) [Example 169], the logP is 1.59[b].

In the case of `CC(C)Nc1nc(Nc2ccc(SC(F)F)cc2)ncc1Cl` [Example 212], the logP is 2.88[b].

For `COCC(C)Nc1nc(Nc2ccc(N(C(=O)C(F)(F)F)C3CC3)cc2)ncc1Cl` (centres unmarked) [Example 164], the logP was 2.55[b].

Take `COCC(C)Nc1nc(Nc2ccc(C)c(NC(C)=O)c2)ncc1Cl` (centres unmarked) [Example 167]: the logP is 1.37[b].

Take `COCC(C)Nc1nc(Nc2ccc(NC=O)cc2)ncc1Cl` (racemic) [Example 138]: the logP is 1.28[b].

Take `COCC(C)Nc1nc(Nc2ccc(CC(=O)C(C)(C)C)cc2)ncc1Cl` (centres unmarked) [Example 151]: the logP was 2.26[b].

For `CN(C)c1nc(Nc2ccccc2)ncc1Br` [Example 178], the logP is 1.86[b].

With `CCOCCN(C)c1nc(Nc2ccccc2)ncc1Br` [Example 237], the logP is 2.55[b].

Turning to `COCC(C)Nc1nc(Nc2ccc3sc(C)nc3c2)ncc1Br` (centres unmarked) [Example 122], the logP is 1.87[b].

For `COCC(C)Nc1nc(Nc2cccc(NC=O)c2)ncc1Br` (racemic) [Example 132], the logP is 1.43[b].

`CC(=O)c1ccc(Nc2ncc(Cl)c(NC(C)C)n2)cc1` [Example 200]: the logP was 2.06[b].

`COCC(C)Nc1nc(Nc2ccc(OC(F)(F)C(F)F)cc2)ncc1Cl` (centres unmarked) [Example 158]: the logP is 2.61[b].

Take `CC(C)Nc1nc(Nc2cccc(OC(F)(F)C(F)F)c2)ncc1Cl` [Example 211]: the logP is 2.88[b].

Turning to `CCOC(=O)Nc1cccc(Nc2ncc(Cl)c(NC(C)COC)n2)c1` (racemic) [Example 143], the logP is 1.78[b].

`CC(C)Nc1nc(Nc2cccc(NC(=O)C(C)(C)C)c2)ncc1Cl` [Example 197]: the logP was 1.91[b].

The same data set, now with this note: values marked [c]; footnote not given.
On to `CCOCCN(C)c1nc(Nc2ccccc2)ncc1Br` [Example 237], for which the logP is 3.95[c];.
